Where two headings read alike, the source gives them in different places.
Key:
MST1 [1] = molecular target: T1, MST1 (Homo sapiens (Human), UniProt Q13043); test: In vitro enzyme activity test (ADP-GLO); assay type: biochemical; settings: ATP 50 μM, 37° C. 1 hour, read-out: MST1 (IC50/μM)
Description: The IC50 values of the compounds against MST1 were determined. The protein kinase MST1 and the substrate were obtained from commercial sources.
5.4 μL of protein kinase MST1 diluted to a certain concentration (final concentration was 2.5 ng/μL) and 1 μL of serially diluted drug compounds and control compound XMU-MP-1 were taken to react at room temperature for 10 minutes (final drug concentrations were 10 μM, 1 μM, 0.3 μM, 0.1 μM, 0.03 μM, 0.01 μM, 0.003 μM, 0.001 μM, respectively).
6 μL of a mixture of ATP (with a final reaction concentration of 50 μM) and substrate was added to the above reaction tube to react at 37° C. for 1 hour. The reaction buffer was 40 mM Tris, 7.5; 20 mM MgCl2; 0.1 mg/ml BSA; 50 μM DTT.
5 μL of the kinase mixture after the reaction was taken to a 384-well plate, and 5 μL of ADP-GLO™ reagent was added thereto. After reaction at room temperature for 40 minutes, the kinase reaction was terminated and the remaining ATP was consumed.
10 μL of a kinase detection reagent was added to convert ADP into ATP, and a coupled luciferase/luciferin reaction was utilized to detect the newly synthesized ATP. Envision was used to read and plot the data, and calculate the IC50 value.

TAOK = settings: literature; cited from earlier work
AURKA = AURKA (Homo sapiens (Human), UniProt O14965); settings: literature; cited from earlier work
MIN-6 cells = test: Proliferation of MIN-6 cells (cell counter); settings: 1 μM, 72 hours
Description: The effects of compound 1 and the control compound XMU-MP-1 on MST1 signaling pathway such as autophosphorylation of MST1, apoptosis signaling pathway such as cleavage of four proteins Caspase9/7/3 and PARP, expression of BIM, BAX, BCL-2, BCL-XL protein, proliferation-related signaling pathway such as autophosphorylation of AKT and ERK, and phosphorylation and protein expression of insulin secretion transcription factor PDX1 were tested in mouse pancreatic β-cells, MIN-6 cells (Hunan Fenghuishengwu technology Co., Ltd.). Compound 1 of different concentrations (0 μM, 0.3 μM, 1 μM, 3 μM in DMSO) and XMU-MP-1 of 1 μM (in DMSO) were used to treat the cell line for 72 hours in a medium with a glucose content of 33.3 mM, respectively. One of the control DMSO group involved 5.5 mM glucose and the other one involved 33.3 mM glucose. The samples were collected.
JIMBIO cell counter (EXCEL HERO TECHNOLOGY LIMITED) was used to detect the effect on the proliferation of MIN-6 cells after 72 hours of the administration.

MAP3K2 = MAP3K2 (Homo sapiens (Human), UniProt Q9Y2U5); settings: literature; cited from earlier work
PIK3CG = PIK3CG (Homo sapiens (Human), UniProt P48736); settings: literature; cited from earlier work
MST1 [2] = molecular target: T1, MST1; settings: literature; read-out: IC50 against MST1; cited from earlier work
C57BL/6 mice = test: Liver injury repair experiment (paracetamol/APAP-induced); assay type: in vivo
Description: C57BL/6 mice, male, 20 g, were maintained in a SPF animal room. Thirty C57BL/6 mice were fasted for 12 hours overnight, and 5 mice of which were intraperitoneally injected with normal saline to act as a normal control group, and the other 25 mice were intraperitoneally injected with paracetamol (APAP) (purchased from Sigma)-600 mg/kg, and randomly divided into 5 groups after 30 minutes, wherein the 5 groups include vehicle (5% DMSO in water), compound 1-1-po, compound 1-2-po, compound 1-4-po, XMU-MP-1-ip groups. Mice in the vehicle group were administered intragastrically with vehicle control; mice in the compound 1-1-po, compound 1-2-po, compound 1-4-po groups were administered intragastrically with compound 1 at 1 mg/kg, 2 mg/kg or 4 mg/kg, respectively; mice in the XMU-MP-1-ip group were intraperitoneally administered with the control compound XMU-MP-1 at 1 mg/kg. After the administration, the body weight of the mice was monitored and the survival status of the mice was observed.

MST2 = MST2 (Homo sapiens (Human), UniProt Q13188); settings: read-out: IC50 against MST2; literature; cited from earlier work
Chain of MST2 (Q13188 whole entry, species assumed): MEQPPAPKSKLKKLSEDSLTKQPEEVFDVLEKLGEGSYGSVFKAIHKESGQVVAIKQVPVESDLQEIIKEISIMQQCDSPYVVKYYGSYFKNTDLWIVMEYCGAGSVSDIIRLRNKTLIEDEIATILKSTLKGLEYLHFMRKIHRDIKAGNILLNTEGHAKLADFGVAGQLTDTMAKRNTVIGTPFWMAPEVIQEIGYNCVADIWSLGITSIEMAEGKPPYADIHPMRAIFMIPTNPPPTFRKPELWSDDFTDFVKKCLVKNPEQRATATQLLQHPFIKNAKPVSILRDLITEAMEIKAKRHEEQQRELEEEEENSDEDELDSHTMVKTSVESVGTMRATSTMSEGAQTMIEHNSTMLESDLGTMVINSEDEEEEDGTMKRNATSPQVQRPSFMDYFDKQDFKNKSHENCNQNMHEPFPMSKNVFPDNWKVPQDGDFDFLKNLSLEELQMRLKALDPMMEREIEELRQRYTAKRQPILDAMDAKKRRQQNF

T1 sequence (Q13043 whole entry): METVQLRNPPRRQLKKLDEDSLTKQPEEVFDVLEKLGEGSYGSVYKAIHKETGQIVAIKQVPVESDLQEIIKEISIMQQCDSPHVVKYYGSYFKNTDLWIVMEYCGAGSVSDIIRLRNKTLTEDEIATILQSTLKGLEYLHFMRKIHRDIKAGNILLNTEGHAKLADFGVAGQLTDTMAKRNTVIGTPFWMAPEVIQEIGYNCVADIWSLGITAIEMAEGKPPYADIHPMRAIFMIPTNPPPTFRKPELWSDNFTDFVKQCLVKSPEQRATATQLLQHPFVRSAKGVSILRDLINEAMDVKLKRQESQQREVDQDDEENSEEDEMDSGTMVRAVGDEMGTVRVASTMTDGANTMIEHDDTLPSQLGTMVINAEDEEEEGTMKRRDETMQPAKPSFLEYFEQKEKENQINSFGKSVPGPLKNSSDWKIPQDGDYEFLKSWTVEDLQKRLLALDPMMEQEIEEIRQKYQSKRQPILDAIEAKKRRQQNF
Chain of MAP3K2 (Q9Y2U5 whole entry, species assumed): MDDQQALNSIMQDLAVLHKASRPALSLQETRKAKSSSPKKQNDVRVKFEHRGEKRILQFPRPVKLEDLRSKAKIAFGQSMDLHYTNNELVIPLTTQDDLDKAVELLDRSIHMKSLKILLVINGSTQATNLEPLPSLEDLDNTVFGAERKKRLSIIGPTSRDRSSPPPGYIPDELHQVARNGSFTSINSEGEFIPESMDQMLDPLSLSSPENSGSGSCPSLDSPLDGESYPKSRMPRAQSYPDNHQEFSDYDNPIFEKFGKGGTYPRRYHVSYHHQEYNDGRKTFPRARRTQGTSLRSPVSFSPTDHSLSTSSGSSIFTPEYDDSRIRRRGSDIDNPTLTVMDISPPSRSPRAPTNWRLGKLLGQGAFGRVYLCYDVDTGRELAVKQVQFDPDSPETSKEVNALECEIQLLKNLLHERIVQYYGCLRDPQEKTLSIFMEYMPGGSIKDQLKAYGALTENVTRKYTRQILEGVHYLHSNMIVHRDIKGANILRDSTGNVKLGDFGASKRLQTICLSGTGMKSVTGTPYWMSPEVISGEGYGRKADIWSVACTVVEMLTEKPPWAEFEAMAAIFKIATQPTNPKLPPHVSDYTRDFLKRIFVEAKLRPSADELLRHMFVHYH
Chain of AURKA (O14965 whole entry, species assumed): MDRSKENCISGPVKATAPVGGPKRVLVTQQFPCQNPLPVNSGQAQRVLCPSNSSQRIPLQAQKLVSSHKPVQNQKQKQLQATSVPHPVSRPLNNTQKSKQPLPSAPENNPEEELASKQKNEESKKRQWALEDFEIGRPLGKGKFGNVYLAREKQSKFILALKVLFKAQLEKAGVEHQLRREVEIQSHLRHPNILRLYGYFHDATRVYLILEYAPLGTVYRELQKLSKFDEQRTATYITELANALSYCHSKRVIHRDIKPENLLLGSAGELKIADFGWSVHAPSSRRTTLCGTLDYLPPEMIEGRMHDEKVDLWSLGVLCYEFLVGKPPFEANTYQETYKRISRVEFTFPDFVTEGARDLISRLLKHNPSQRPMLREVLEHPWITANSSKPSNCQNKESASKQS
Chain of PIK3CG (P48736 whole entry, species assumed): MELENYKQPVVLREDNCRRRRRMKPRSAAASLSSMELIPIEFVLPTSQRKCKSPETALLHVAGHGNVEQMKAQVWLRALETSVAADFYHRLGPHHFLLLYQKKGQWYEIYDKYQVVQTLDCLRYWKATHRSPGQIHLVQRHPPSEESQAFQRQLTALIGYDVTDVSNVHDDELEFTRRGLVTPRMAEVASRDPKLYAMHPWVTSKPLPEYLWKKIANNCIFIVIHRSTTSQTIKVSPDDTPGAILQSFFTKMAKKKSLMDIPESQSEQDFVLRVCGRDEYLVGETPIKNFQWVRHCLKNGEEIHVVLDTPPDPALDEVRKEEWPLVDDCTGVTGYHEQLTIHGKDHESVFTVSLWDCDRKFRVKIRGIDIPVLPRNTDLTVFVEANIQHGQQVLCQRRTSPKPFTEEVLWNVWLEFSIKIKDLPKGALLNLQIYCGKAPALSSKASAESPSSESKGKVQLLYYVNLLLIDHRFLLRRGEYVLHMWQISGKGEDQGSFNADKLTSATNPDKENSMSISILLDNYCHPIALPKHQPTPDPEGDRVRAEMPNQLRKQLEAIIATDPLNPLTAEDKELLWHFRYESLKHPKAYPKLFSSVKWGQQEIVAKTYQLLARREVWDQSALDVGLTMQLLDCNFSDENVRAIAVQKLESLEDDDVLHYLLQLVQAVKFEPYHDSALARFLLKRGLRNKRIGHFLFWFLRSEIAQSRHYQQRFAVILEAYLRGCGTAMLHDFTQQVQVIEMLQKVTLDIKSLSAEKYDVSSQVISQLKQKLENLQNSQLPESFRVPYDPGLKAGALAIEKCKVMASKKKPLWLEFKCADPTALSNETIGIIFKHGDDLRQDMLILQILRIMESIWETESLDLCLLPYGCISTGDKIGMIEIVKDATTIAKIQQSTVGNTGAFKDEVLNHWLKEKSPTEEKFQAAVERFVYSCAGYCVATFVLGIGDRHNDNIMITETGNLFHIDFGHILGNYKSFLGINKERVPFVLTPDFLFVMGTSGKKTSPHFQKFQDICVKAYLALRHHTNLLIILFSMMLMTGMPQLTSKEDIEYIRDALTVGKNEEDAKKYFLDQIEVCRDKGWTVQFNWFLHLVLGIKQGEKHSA

## CN1C(=O)c2sccc2N(C)c2nc(Nc3ccc(S(N)(=O)=O)cc3)ncc21 [XMU-MP-1]
MST1 [1]
  IC50: 0.121 µM
TAOK
  inhibitory effect on TAOK: significant inhibitory effect
AURKA
  inhibition of AURKA: inhibited
MIN-6 cells
  number of cells: reduced to a certain extent
  toxicity to MIN6 cells: toxic to MIN6 cells to a certain extent
MAP3K2
  inhibitory effect on MAP3K2: significant inhibitory effect
PIK3CG
  inhibition of PIK3CG: inhibited
MST1 [2]
  IC50: 71 nM
C57BL/6 mice; 1 mg/kg intraperitoneally after APAP 600 mg/kg ip
  survival of the mice: all escaped from death
C57BL/6 mice; after APAP 600 mg/kg ip, compound 1 po 1-4 mg/kg, XMU-MP-1 ip 1 mg/kg
  weight of mice: can gradually recover
MST2
  IC50: 38 nM

— US12318398B2, “MST1 kinase inhibitor and use thereof” (priority 2018, dated 2025)
